Measurements: patent EP3074389B1, “QUINOLINE DERIVATIVES AS BROMODOMAIN INHIBITORS” (Gilead Sciences, Inc., priority 2013, dated 2015)

Legend:
BRD4 domain 1 = BRD4 domain 1 (Homo sapiens, UniProt O60885); assay: Kd determination of inhibitors binding to BRD4 domain 1 (Epic label-free platform); conditions: direct binding to immobilized BRD4 domain 1; tripling dilution series from 20µM; about 1hr equilibrium; rounded to whole number; read-out: Epic Kd BRD41
Protocol: (§1) Kd Determination of Inhibitors Binding to BRD4 Domain 1 and Domain 2
(§2) The binding of small molecule inhibitors to either BRD4 domain 1 or domain 2 were determined using the Epic, high-throughput, label-free platform (Corning, Lowell, MA). The Epic instrument incorporates an evanescent waveguide sensor within each well of its proprietary 384-well microplates. Direct binding of inhibitors to BRD4 immobilized onto the microplate well surface can be detected by exposing the waveguide to a broadband light source. The resulting resonant wavelength shift (measured in picometers (pm)) is proportional to the mass bound to the surface. Epic biochemical plates (Corning, Lowell, MA) were activated by adding 15 µL/well of 200 mM EDC and 50 mM Sulfo-NHS (Pierce Thermo Scientific, Rockford, IL) and incubated for 60 minutes at room temperature. Plates were washed three times with MilliQ water and dried by centrifugation (1 minute at 400 rpm). BRD4 immobilization was accomplished by resuspending the protein at a concentration of 150 µg/mL in 20 mM HEPES (pH 7) and adding 10 µL/well. […] Compound/inhibitor binding was determined by calculating difference between the baseline (first read) and second read. The resulting binding response was fitted to a single site binding isotherm in order to determine an equilibrium dissociation constant (Kd).

BRD4 domain 2 = BRD4 domain 2 (Homo sapiens, UniProt O60885); assay: Kd determination of inhibitors binding to BRD4 domain 2 (Epic label-free platform); conditions: direct binding to immobilized BRD4 domain 2; tripling dilution series from 20µM; about 1hr equilibrium; rounded to whole number
Protocol: as §1, §2

| Structure (SMILES) | Kd (BRD4 domain 1) [nM] | Kd (BRD4 domain 2) [nM] |
| --- | --- | --- |
| Cc1noc(C)c1-c1cc(S(=O)(=O)NC2CCCC2)c2cc(NC(C)(C)CO)c(=O)[nH]c2c1 [Compound 97, N-cyclopentyl-7-(3,5-dimethylisoxazol-4-yl)-3-((1-hydroxy-2-methylpropan-2-yl)amino)-2-oxo-1,2-dihydroquinoline-5-sulfonamide] | 936 | 658 |
| Cc1noc(C)c1-c1cc(S(=O)(=O)N[C@H]2C[C@@H](NC(=O)OC(C)(C)C)C2)c2cccnc2c1 [Compound 25, tert-butyl ((1s,3s)-3-(7-(3,5-dimethylisoxazol-4-yl)quinoline-5-sulfonamido)cyclobutyl)carbamate] | 16200 | > 20000 |
| Cc1noc(C)c1-c1cc(S(=O)(=O)NC2CCCC2)c2cc(-c3ccccn3)c(=O)[nH]c2c1 [Compound 36, N-cyclopentyl-7-(3,5-dimethylisoxazol-4-yl)-2-oxo-3-(pyridin-2-yl)-1,2-dihydroquinoline-5-sulfonamide] | 1450 | 718 |
| Cc1noc(C)c1-c1cc(S(=O)(=O)NC2CCCC2)c2cc(NC(CO)CO)c(=O)[nH]c2c1 [Compound 92, N-cyclopentyl-3-((1,3-dihydroxypropan-2-yl)amino)-7-(3,5-dimethylisoxazol-4-yl)-2-oxo-1,2-dihydroquinoline-5-sulfonamide] | 897 | 493 |
| Cc1noc(C)c1-c1cc(S(=O)(=O)NCC2CC(F)(F)C2)c2cccnc2c1 [Compound 11, N-((3,3-difluorocyclobutyl)methyl)-7-(3,5-dimethylisoxazol-4-yl)quinoline-5-sulfonamide] | 12800 | > 20000 |
| Cc1noc(C)c1-c1cc(S(=O)(=O)NC2CCCC2)c2cc(N3CCOCC3)c(=O)[nH]c2c1 [Compound 55, N-cyclopentyl-7-(3,5-dimethylisoxazol-4-yl)-3-morpholino-2-oxo-1,2-dihydroquinoline-5-sulfonamide] | 1340 | 726 |
| Cc1noc(C)c1-c1cc(S(=O)(=O)NC2CCCC2)c2cc(NCc3cccnc3)c(=O)[nH]c2c1 [Compound 67, N-cyclopentyl-7-(3,5-dimethylisoxazol-4-yl)-2-oxo-3-((pyridin-3-ylmethyl)amino)-1,2-dihydroquinoline-5-sulfonamide] | 444 | 404 |
| Cc1noc(C)c1-c1cc(S(=O)(=O)N[C@H]2C[C@@H](N)C2)c2cccnc2c1 [Compound 34, N-((1S,3S)-3-aminocyclobutyl)-7-(3,5-dimethylisoxazol-4-yl)quinoline-5-sulfonamide] | 5480 | 11100 |
| Cc1noc(C)c1-c1cc(S(=O)(=O)NC2CCCC2)c2cc(NC3COC3)c(=O)[nH]c2c1 [Compound 96, N-cyclopentyl-7-(3,5-dimethylisoxazol-4-yl)-3-(oxetan-3-ylamino)-2-oxo-1,2-dihydroquinoline-5-sulfonamide] | 467 | 433 |
| Cc1noc(C)c1-c1cc(S(=O)(=O)NC2CCCC2)c2ccc(C3CC3)nc2c1 [Compound 4, N-cyclopentyl-2-cyclopropyl-7-(3,5-dimethylisoxazol-4-yl)quinoline-5-sulfonamide] | 1440 | 3500 |
| Cc1noc(C)c1-c1cc(S(=O)(=O)N[C@@H]2CCC[C@H]2C(=O)NCc2nccn2C)c2cccnc2c1 [Compound 42, (1R,2R)-2-(7-(3,5-dimethylisoxazol-4-yl)quinoline-5-sulfonamido)-N-((1-methyl-1H-imidazol-2-yl)methyl)cyclopentan ecarboxamide] | 16200 | 6840 |
| Cc1noc(C)c1-c1cc(S(=O)(=O)N[C@@H]2CCC[C@H]2N)c2cccnc2c1 (stereo in doubt) [Compound 46, N-((1R,2R)-2-aminocyclopentyl)-7-(3,5-dimethylisoxazol-4-yl)quinoline-5-sulfonamide] | 6420 | 7830 |
| Cc1noc(C)c1-c1cc(S(=O)(=O)NC2CCCC2)c2ccc(Cl)nc2c1 [Compound 3, 2-chloro-N-cyclopentyl-7-(3,5-dimethylisoxazol-4-yl)quinoline-5-sulfonamide] | 1250 | 2970 |
| Cc1noc(C)c1-c1cc(S(=O)(=O)NCCc2ccccc2)c2ccc(=O)[nH]c2c1 [Compound 48, 7-(3,5-dimethylisoxazol-4-yl)-2-oxo-N-phenethyl-1,2-dihydroquinoline-5-sulfonamide] | > 20000 | 20000 |
| Cc1noc(C)c1-c1cc(S(=O)(=O)NC2CCCC2)c2cc(NCCOCCO)c(=O)[nH]c2c1 [Compound 91, N-cyclopentyl-7-(3,5-dimethylisoxazol-4-yl)-3-((2-(2-hydroxyethoxy)ethyl)amino)-2-oxo-1,2-dihydroquinoline-5-sulfonamide] | 705 | 473 |
| Cc1noc(C)c1-c1cc(S(=O)(=O)NC2CCCC2)c2cc(-n3ccnc3)c(=O)[nH]c2c1 [Compound 32, N-cyclopentyl-7-(3,5-dimethylisoxazol-4-yl)-3-(1H-imidazol-1-yl)-2-oxo-1,2-dihydroquinoline-5-sulfonamide] | 717 | 519 |
| Cc1noc(C)c1-c1cc(S(=O)(=O)NC2CCCC2)c2cc(-c3cccnc3)c(=O)[nH]c2c1 [Compound 29, N-cyclopentyl-7-(3,5-dimethylisoxazol-4-yl)-2-oxo-3-(pyridin-3-yl)-1,2-dihydroquinoline-5-sulfonamide] | 253 | 241 |
| COC[C@H]1CCC[C@H]1NS(=O)(=O)c1cc(-c2c(C)noc2C)cc2ncccc12 [Compound 63, 7-(3,5-dimethylisoxazol-4-yl)-N-((1R,2S)-2-(methoxymethyl)cyclopentyl)quinoline-5-sulfonamide] | 14600 | 9560 |
| Cc1noc(C)c1-c1cc(S(=O)(=O)NC2CCCC2)c2cc(N(C)C)c(=O)[nH]c2c1 [Compound 61, N-cyclopentyl-3-(dimethylamino)-7-(3,5-dimethylisoxazol-4-yl)-2-oxo-1,2-dihydroquinoline-5-sulfonamide] | 1020 | 645 |
| Cc1noc(C)c1-c1cc(S(=O)(=O)N[C@@H]2CCC[C@H]2O)c2ccc(=O)[nH]c2c1 [Compound 82, 7-(3,5-dimethylisoxazol-4-yl)-N-((1R,2R)-2-hydroxycyclopentyl)-2-oxo-1,2-dihydroquinoline-5-sulfonamide] | 1920 | 1900 |
| Cc1noc(C)c1-c1cc(S(=O)(=O)NC2CCCC2)c2cc(Br)c(=O)[nH]c2c1 [Compound 22, 3-bromo-N-cyclopentyl-7-(3,5-dimethylisoxazol-4-yl)-2-oxo-1,2-dihydroquinoline-5-sulfonamide] | 1020 | 501 |
| Cc1noc(C)c1-c1cc(S(=O)(=O)NCCN)c2cccnc2c1 [Compound 74, N-(2-aminoethyl)-7-(3,5-dimethylisoxazol-4-yl)quinoline-5-sulfonamide] | 14100 | 17500 |
| Cc1noc(C)c1-c1cc(S(=O)(=O)NC2CCCC2)c2cc(NCC(C)(C)N)c(=O)[nH]c2c1 [Compound 99, 3-((2-amino-2-methylpropyl)amino)-N-cyclopentyl-7-(3,5-dimethylisoxazol-4-yl)-2-oxo-1,2-dihydroquinoline-5-sulfonamide] | 671 | 632 |
| Cc1noc(C)c1-c1cc(S(=O)(=O)NC2CCCC2)c2cc(-c3ccc(F)cc3)c(=O)[nH]c2c1 [Compound 28, N-cyclopentyl-7-(3,5-dimethylisoxazol-4-yl)-3-(4-fluorophenyl)-2-oxo-1,2-dihydroquinoline-5-sulfonamide] | 348 | 555 |
| Cc1noc(C)c1-c1cc(S(=O)(=O)N[C@@H]2CCC[C@H]2NC(=O)OC(C)(C)C)c2cccnc2c1 [Compound 45, tert-butyl ((1R,2R)-2-(7-(3,5-dimethylisoxazol-4-yl)quinoline-5-sulfonamido)cyclopentyl)carbamate] | 14600 | > 20000 |
| Cc1noc(C)c1-c1cc(S(=O)(=O)NC2CCCC2)c2cc(C(=O)O)c(=O)[nH]c2c1 [Compound 70, 5-(N-cyclopentylsulfamoyl) -7-(3,5-dimethylisoxazol-4-yl)-2-oxo-1,2-dihydroquinoline-3-carboxylic acid] | 8230 | 1960 |
| CCOC(=O)N[C@H]1CCC[C@H]1NS(=O)(=O)c1cc(-c2c(C)noc2C)cc2ncccc12 [Compound 54, ethyl ((1S,2R)-2-(7-(3,5-ditnethylisoxazol-4-yl)quinoline-5-sulfonamido)cyclopentyl)carbamate] | 5860 | 7990 |
| COc1ccc2c(S(=O)(=O)NC3CCCC3)cc(-c3c(C)noc3C)cc2n1 [Compound 16, N-cyclopentyl-7-(3,5-dimethylisoxazol-4-yl)-2-methoxyquinoline-5 - sulfonamide] | 3370 | 6300 |
| CC(=O)N[C@H]1CCC[C@H]1NS(=O)(=O)c1cc(-c2c(C)noc2C)cc2ncccc12 [Compound 51, N-((1S,2R)-2-(7-(3,5-dimethylisoxazol-4-yl)quinoline-5-sulfonamido)cyclopentyl)acetamide] | 7620 | 6450 |
